Patent US20210346414A1, “APPLICATION OF GLYCOSIDES IN THE PREPARATION OF DRUGS FOR PREVENTING AND TREATING DIABETES COMPLICATIONS” (CHENGDU SINNOCEAN BIOTECHNOLOGY CO., LTD., priority 2018, published 2021)
Several values for one entry are separate records, joined by “and”; a condition that tells them apart may be missing. Identical values can stand only once.

Legend:
Assay type in all cases: in vivo
[1] = tested on: spontaneous type II diabetic db/db mice; assay: Prevention and treatment of retinopathy: pathological staining of eyeball, grading of retinal ganglion cell layer degeneration; parameters: key to Left eye / Right eye / Retinal degeneration, ganglion cell layer (right eye) / Retinal degeneration, ganglion cell layer (left eye): “N” means normal tissue morphology and structure; “E” means changed tissue morphology and structure; “—” means no such pathological change; details: 12 weeks
Description: (§1) Design of test groups: db/m group, db/db mice are divided into the following six groups: blank control group (no glucose), negative control group (model group), positive control group (350 mg/kg metformin), H2 low dose group (40 mg/kg), H2 medium dose group (80 mg/kg), H2 high dose group (160 mg/kg); • Number of animals: 12 mice for each group; • Sex: male;
(§2) Administration frequency: once a day, for 12 weeks; db/m group, blank control group and negative control group: receiving distilled water; positive control group: positive drug metformin; other administration groups: receiving different dose of test drug H2, respectively; the day of administration was defined as the first day of the test.
During the test period, compared with the animals in normal control group, the retinal ganglion cell layer of animals in each group had different degrees of degeneration except for the test drug H2 high-dose group. According to the severity of the degeneration of the retinal ganglion cell layers, there were 0-4 grades according to the pathological grading principle in the literature
(Fermented Milk has Anti-diabetic Effects: Anti-diabetic Effect of Fermented Milk Containing Conjugated Linoleic Acid on Type II Diabetes Mellitus, Korean J. Food Sci. An., Vol. 36, No. 2 (2016)). The larger the value, the more severe the disease.

[2] = tested on: spontaneous type II diabetic db/db mice; assay: Kidney function: blood urea nitrogen (UREA), blood creatinine (CREA) and renal index before and after administration; details: MEAN ± SEM
Description: as §1, §2
(1) Changes of blood urea nitrogen (UREA) and blood creatinine (CREA) as well as renal index before and after administration

[3] = tested on: spontaneous type II diabetic db/db mice; assay: Kidney histopathology grading after treatment; parameters: key to kidney / Basophilic changes in renal tubules / Monocyte infiltration / Hypertrophy of renal tubular epithelial cells / Dilation of the renal pelvis / Protein casts / Glomerular dilation / Glomerulosclerosis: “N” means normal tissue morphology and structure; “E” means changed tissue morphology and structure; “—” means no such pathological change; details: 12 weeks
Description: as §1, §2
After completion of the test, the kidney was dissected and collected. The histopathological results of the kidney indicated the grades by referring to the principles and standards in literature
(Fermented Milk has Anti-diabetic Effects: Anti-diabetic Effect of Fermented Milk Containing Conjugated Linoleic Acid on Type II Diabetes Mellitus, Korean J. Food Sci. An., Vol. 36, No. 2 (2016)).

[4] = tested on: spontaneous type II diabetic db/db mice; assay: Hypoglycemic effect test: tail vein blood glucose during 12 weeks of dosing
Description: as §1, §2
Sampling frequency: blood glucose was detected once every 2 weeks after grouping, and then after glucose was administrated, the blood glucose was further measured. Sampling site: tail vein; sampling volume: about 1 drop; blood glucose detection: real-time detection by blood glucose meter.

[5] = metformin 350 mg/kg oral gavage once a day, individual animals
[6] = metformin 350 mg/kg oral gavage once a day, individual animals, grades 0-4, larger = more severe
[7] = metformin 350 mg/kg oral gavage once a day, 12 weeks
[8] = metformin 350 mg/kg oral gavage once a day, individual animals, grade
[9] = metformin 350 mg/kg oral gavage once a day, MEAN ± SEM

In the case of CN(C)C(=N)N=C(N)N [metformin, Metformin], the Left eye [1, 5] is reported as “E (3×) and N (6×)”, the Right eye [1, 5] is reported as “N (8×) and E” and the “Retinal degeneration, ganglion cell layer (left eye)” value [1, 6] is reported as 2 (2×) and — (6×) and 1. The “Retinal degeneration, ganglion cell layer (right eye)” value [1, 6] was “— (8×) and 1”, the “Improvement of retinopathy (in words)” value ([1]; metformin 350 mg/kg, vs. negative control group) was “hardly improved the symptoms of retinopathy” and the “Before administration CREA” value ([2]; metformin 350 mg/kg group, before administration (baseline)) was 4.50 ± 1.38 µmol/L. For the same compound, the “Change rate of CREA” value [2, 7] was 0.83 ± 0.17, the Renal index [2, 7] was 0.43 ± 0.03% and the kidney [3, 5] was “E”. For the same compound, the “Basophilic changes in renal tubules” value [3, 8] was “— (8×) and 1”, the “Dilation of the renal pelvis” value [3, 8] was “—” and the Glomerular dilation [3, 8] was “—”. The Glomerulosclerosis [3, 8] was 1 and — (8×), the “Hypertrophy of renal tubular epithelial cells” value [3, 8] was “—” and the Monocyte infiltration [3, 8] was “—”. The “Proliferation of glomerular mesangum or mesangial cells” value [3, 8] was 1 (3×) and 2 (6×), the Protein casts [3, 8] was “—” and the “Proliferation of glomerular mesangum or mesangial cells (in words)” value ([3]; metformin 350 mg/kg, no statistical difference vs. negative control group) was “showed the effect trend of alleviating the proliferation of glomerular mesangum or mesangial cells”. For the same compound, the “Blood glucose concentration, Administrating for 15 days” value [4, 9] was 6.95 ± 0.57 mmol/L, the “Blood glucose concentration, Administrating for 29 days” value [4, 9] was 8.30 ± 0.94 mmol/L and the “Blood glucose concentration, Administrating for 43 days” value [4, 9] was 8.93 ± 1.15 mmol/L. For the same compound, the “Blood glucose concentration, Administrating for 57 days” value [4, 9] was 8.92 ± 1.12 mmol/L, the “Blood glucose concentration, Administrating for 72 days” value [4, 9] was 8.80 ± 1.11 mmol/L and the “Blood glucose concentration, Administrating for one day” value [4, 9] was 13.78 ± 1.74 mmol/L. For the same compound, the “Hypoglycemic effect (in words)” value ([4]; metformin 350 mg/kg, vs. negative control group, from the 15th day, P<0.001) was “could significantly reduce the blood sugar of db/db mice”.
